The source made the active and inactive calls.
What was measured:
[1] = biological target: Induced myeloid leukemia cell differentiation protein Mcl-1 (Homo sapiens, UniProt Q07820); format: functional
[2] = growth suppression of PTEN-null colon cells, dose response, cell-based, HCT116 PTEN knockout (AID 1047); format: functional;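 further: HCT116 colon tumor cells with PTEN knocked out; cells exposed to compound for 60 hours before readout; potency for loss of cell viability measured by luminescence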
[3] = growth suppression of beta-catenin-knockout colon cells, dose response, cell-based, HCT116, human colon tumor (AID 1045); format: functional;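 further: HCT116 colon tumor cells with beta catenin knocked out; cells exposed to compound for 60 hours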
[4] = inhibitors of intracellular T. cruzi replication, confirmation, NIH3T3 host cells, beta-gal luminescence (AID 2044); format: functional, cell-based;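 further: intracellular parasites grown in NIH/3T3 mouse fibroblasts as host cells; luminescent beta-galactosidase reporter signal from transgenic T. cruzi replicating inside host cells; inhibitors lower the luminescence signal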
[5] = cytotoxicity toward NIH3T3 fibroblasts, dose response, counter-screen, cell-based, ATP luminescence, mouse fibroblasts (AID 2010); format: functional;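 further: cells exposed to compound for about 90 hours before reading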
Genome polyprotein = Genome polyprotein (dengue virus type 2, UniProt P29990); assay: Dengue-2 NS5 methyltransferase inhibitors, primary screen, biochemical, confirmation dose response (AID 588689); format: functional
Fatty acid synthase [6] = biological target: T1, Fatty acid synthase (Homo sapiens, UniProt P49327); assay: FAS thioesterase domain inhibitors, dose response, biochemical, endpoint fluorescence intensity, uHTS hits (AID 624327); format: functional;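 further: fluorescence from hydrolysis of an O-methyl fluorescein acyl ester substrate by the enzyme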
Fatty acid synthase [7] = biological target: T1, Fatty acid synthase; assay: FAS thioesterase domain inhibitors, dose response, biochemical, kinetic fluorescence intensity (AID 624326); format: functional;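 further: rate of fluorescence rise from hydrolysis of a fluorogenic O-methyl fluorescein ester substrate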
[8] = A549 cell cytotoxicity, dose response, cytotoxicity control, plate reader, cherry-pick, antagonist series (AID 743412); format: functional, cell-based
[9] = HepG2 cell cytotoxicity, dose response, cytotoxicity control, plate reader, cherry-pick, antagonist series (AID 743416); format: functional, cell-based
[10] = LGR2 antagonists, dose response, cell-based, HEK293, CRE-luciferase reporter, cherry pick, set 2 (AID 743343); format: functional;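 further: transfected cells were stimulated with diluted bursicon conditioned medium after compound addition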
[11] = MC4R antagonists, dose response, counter-screen for LGR2 antagonist project, cell-based, plate reader, cherry pick (AID 743444); format: functional;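 further: transfected HEK 293 cells stimulated with alpha-MSH peptide; potency of inhibitors of the alpha-MSH evoked signal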
[12] = Shn3 3'UTR reporter inhibitors, dose response, cell-based, Clone20 osteoblasts, firefly luciferase, cherry-picked (AID 624132); format: functional;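 further: firefly luciferase luminescence from reporter carrying the Shn3 3'UTR in osteoblasts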
[13] = HepG2 cell cytotoxicity, dose response, cytotoxicity control for Shn3 inhibitor project, CellTiter-Glo, cherry-picked (AID 624134); format: functional, cell-based
[14] = control 3'UTR Renilla luciferase suppression, dose response, counter-screen for Shn3 inhibitor project, cell-based, Clone20-Shn3RL, cherry-picked (AID 624133); format: functional
[15] = ZM109 Env clade C HIV-1 fusion inhibitors, dose response, HeLa effector, CEM target cells, luciferase, cherry-pick (AID 652058); format: functional, cell-based
[16] = inhibitors of clade B AD8 Env fusion, dose response, cell-based, cherry-pick (AID 652062); format: functional;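 further: luciferase signal from cell-cell fusion driven by HIV-1 clade B AD8 Env; potency is for inhibitors of fusion seen as a drop in luminescence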
[17] = biological target: T2, Polyadenylate-binding protein 1 (Homo sapiens, UniProt P11940); assay: PABP1 MLLE–PAM2 interaction inhibitors, dose response, miRNA deadenylation inhibitor project, biochemical, fluorescence polarization, Cy5-PAM2 peptide, secondary (AID 602260); format: functional; conditions: read-out: IC50_Mean
[18] = biological target: T2, Polyadenylate-binding protein 1; assay: PABP1 MLLE–PAM2 binding inhibitor potency, dose response, biochemical, fluorescence polarization, FITC-PAM2 peptide (AID 602259); format: functional; conditions: read-out: IC50_Mean

T1 sequence (P49327 whole entry, the tested form may be a part): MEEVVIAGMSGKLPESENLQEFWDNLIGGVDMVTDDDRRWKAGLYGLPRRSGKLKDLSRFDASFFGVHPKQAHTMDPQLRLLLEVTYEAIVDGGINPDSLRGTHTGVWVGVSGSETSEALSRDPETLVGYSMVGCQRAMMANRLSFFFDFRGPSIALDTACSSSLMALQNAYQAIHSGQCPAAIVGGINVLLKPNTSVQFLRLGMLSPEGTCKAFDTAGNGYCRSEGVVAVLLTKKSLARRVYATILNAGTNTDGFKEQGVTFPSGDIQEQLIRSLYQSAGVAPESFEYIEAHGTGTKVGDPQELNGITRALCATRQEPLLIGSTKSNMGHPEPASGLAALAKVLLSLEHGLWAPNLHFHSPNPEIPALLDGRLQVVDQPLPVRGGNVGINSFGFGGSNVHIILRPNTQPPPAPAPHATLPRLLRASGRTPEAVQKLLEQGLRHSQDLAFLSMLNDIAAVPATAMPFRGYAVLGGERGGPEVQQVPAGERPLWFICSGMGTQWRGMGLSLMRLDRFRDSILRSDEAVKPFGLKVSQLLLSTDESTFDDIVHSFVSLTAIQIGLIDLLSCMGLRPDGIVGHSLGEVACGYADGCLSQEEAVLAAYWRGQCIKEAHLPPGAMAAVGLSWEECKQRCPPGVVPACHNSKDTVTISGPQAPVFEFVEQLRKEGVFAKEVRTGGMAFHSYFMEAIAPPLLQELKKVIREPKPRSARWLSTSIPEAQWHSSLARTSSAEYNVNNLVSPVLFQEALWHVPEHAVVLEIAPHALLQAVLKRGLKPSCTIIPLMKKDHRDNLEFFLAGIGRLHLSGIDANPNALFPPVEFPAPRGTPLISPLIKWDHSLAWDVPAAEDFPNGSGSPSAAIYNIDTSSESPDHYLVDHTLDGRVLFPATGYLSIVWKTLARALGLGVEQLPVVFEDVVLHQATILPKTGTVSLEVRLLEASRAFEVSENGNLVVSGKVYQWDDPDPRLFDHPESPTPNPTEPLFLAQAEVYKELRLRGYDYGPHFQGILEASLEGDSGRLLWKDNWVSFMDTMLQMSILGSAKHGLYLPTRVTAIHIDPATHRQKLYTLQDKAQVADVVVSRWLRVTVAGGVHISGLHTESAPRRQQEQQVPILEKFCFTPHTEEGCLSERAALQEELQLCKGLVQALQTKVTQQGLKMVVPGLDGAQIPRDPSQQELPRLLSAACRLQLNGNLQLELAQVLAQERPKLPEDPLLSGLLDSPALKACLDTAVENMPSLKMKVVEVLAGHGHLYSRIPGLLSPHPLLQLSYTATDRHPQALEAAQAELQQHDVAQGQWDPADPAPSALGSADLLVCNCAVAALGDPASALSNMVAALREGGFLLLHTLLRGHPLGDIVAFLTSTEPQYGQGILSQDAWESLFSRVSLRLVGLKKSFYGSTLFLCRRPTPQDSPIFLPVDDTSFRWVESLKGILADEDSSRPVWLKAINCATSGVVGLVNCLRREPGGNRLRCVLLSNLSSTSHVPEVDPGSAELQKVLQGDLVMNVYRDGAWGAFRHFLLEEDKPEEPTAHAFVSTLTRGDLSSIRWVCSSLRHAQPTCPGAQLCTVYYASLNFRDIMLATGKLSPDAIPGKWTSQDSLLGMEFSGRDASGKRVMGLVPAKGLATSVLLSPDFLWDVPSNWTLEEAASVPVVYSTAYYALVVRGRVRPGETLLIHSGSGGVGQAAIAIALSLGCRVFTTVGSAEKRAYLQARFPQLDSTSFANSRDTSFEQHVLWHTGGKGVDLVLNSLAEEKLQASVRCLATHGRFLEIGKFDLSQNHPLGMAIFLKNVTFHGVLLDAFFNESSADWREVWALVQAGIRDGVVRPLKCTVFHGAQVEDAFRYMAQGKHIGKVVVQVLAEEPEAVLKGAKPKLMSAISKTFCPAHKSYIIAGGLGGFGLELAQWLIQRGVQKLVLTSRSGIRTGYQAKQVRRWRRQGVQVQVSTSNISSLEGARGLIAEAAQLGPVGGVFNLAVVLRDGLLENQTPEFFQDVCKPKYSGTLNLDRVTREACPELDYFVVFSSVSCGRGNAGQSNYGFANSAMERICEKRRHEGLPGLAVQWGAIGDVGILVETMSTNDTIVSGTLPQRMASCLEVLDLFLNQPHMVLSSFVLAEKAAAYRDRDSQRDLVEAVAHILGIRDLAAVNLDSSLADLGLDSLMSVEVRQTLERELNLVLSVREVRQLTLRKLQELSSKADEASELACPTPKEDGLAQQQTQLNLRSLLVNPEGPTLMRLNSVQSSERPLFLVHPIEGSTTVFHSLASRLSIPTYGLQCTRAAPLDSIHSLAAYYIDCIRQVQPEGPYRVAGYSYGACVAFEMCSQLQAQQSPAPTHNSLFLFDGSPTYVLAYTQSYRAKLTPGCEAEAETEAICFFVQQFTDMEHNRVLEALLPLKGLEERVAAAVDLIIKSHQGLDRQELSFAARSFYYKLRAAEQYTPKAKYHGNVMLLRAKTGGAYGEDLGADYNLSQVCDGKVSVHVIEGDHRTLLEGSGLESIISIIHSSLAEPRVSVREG
Induced myeloid leukemia cell differentiation protein Mcl-1, sequence (Q07820 whole entry): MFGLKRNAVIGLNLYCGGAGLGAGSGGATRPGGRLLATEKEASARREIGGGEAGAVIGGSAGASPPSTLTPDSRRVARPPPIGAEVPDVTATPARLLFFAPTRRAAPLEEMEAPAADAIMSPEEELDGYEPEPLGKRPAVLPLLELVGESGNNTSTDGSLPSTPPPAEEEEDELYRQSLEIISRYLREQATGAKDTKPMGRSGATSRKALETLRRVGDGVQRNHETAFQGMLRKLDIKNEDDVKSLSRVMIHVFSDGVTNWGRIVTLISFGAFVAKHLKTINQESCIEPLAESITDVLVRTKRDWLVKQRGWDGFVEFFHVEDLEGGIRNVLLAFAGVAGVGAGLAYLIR
T2 sequence (P11940 whole entry): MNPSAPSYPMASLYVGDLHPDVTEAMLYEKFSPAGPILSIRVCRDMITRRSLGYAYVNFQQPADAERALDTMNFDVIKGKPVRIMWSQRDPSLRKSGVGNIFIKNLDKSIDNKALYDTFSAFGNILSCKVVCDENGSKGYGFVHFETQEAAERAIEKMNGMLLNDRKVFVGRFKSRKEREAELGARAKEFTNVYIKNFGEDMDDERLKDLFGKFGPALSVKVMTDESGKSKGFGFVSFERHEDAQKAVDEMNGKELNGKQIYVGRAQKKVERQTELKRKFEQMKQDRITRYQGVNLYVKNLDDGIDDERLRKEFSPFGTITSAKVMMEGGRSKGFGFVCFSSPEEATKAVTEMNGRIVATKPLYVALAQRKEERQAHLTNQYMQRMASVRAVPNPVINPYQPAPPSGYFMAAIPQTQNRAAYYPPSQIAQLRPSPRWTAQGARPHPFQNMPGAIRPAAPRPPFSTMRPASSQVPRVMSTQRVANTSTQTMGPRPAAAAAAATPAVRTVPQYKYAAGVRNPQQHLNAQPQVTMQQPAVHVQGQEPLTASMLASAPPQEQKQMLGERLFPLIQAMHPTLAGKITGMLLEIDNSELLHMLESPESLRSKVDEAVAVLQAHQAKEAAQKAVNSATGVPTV
Genome polyprotein, sequence (P29990 2492-3391 limits assumed): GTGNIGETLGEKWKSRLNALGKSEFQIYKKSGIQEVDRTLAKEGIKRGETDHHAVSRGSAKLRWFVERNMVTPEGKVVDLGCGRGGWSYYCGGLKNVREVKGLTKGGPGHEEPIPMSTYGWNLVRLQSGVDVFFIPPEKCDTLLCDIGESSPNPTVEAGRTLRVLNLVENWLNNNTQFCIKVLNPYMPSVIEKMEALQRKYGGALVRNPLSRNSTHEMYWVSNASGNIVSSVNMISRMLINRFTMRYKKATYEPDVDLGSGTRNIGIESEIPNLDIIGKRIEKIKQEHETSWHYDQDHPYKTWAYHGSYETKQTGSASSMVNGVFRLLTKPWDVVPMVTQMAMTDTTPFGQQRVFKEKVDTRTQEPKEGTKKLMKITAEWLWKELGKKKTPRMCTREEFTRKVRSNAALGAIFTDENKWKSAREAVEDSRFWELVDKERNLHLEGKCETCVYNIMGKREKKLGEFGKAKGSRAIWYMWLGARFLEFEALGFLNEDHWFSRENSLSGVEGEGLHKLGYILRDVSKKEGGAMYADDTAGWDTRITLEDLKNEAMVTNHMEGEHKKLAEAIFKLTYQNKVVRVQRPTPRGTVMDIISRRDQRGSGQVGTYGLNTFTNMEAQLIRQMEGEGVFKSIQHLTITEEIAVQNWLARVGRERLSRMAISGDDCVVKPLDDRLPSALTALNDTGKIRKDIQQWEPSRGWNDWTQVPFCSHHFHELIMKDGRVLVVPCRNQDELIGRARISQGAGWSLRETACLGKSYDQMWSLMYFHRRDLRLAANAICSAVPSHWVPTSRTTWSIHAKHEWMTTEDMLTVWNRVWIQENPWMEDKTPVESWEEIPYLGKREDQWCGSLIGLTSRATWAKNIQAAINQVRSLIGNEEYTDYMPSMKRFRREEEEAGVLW

In the case of N#C/C(=C\c1ccc(C(=O)O)cc1)c1nc(O)c2c3c(sc2n1)CCCC3, the IC50 [1] is reported as 3.52 µM (active).

For COCCCNCCOCCOc1ccc(Cl)cc1C(C)(C)C, the EC50 [2] was 14.9 µM (active) and the EC50 [3] was 14.3 µM (active).

For COc1cc(CNCCc2ccc(S(N)(=O)=O)cc2)ccc1OCc1ccc(Cl)cc1, the EC50 [4] was 0.43 µM (active), the EC50 [2] was 9.48 µM (active) and the EC50 [5] was > 60 µM (not active). The EC50 [3] was 7.47 µM (active).

With O=C(C1=C[C@@H](c2ccc(C(F)(F)F)cc2)C[C@@H](OCc2ccc(CO)cc2)O1)N1CCN(Cc2ccccc2)CC1 the IC50 [1] was 1.48 µM (not active).

With Cc1cc(C)c2nc(N3C(=O)C(O)=C(C(=O)c4ccco4)C3c3ccc(O)cc3)sc2c1 (configuration not stated) the IC50 (Genome polyprotein) was 30.4 µM (active).

With Cc1ccc(-c2csc3nc(C(C)C)oc(=O)c23)c(C)c1 the IC50 (Fatty acid synthase [6]) was 1.32 µM (active) and the IC50 (Fatty acid synthase [7]) was 0.761 µM (active).

For CCCOc1ccc(F)cc1-c1cc(C(=O)Nc2cc(OC)c(OC)c(OC)c2)[nH]n1, the AC50 [8] was > 52 µM (inactive), the AC50 [9] was > 52 µM (inactive) and the AC50 [10] was 24 µM (active). For the same compound, the AC50 [11] was 31.2 µM (active).

With COc1ccccc1Cc1c(-c2ccco2)nc2c(C)cc(Br)cn12 the AC50 [12] was 1.9 µM (active), the AC50 [13] was 45.6 µM (active) and the AC50 [14] was 5.7 µM (active).

For CC(C)(C)OC(=O)NCCc1onc(-c2cccc([N+](=O)[O-])c2)c1C(=O)O, the IC50 (Fatty acid synthase [6]) was 1.47 µM (active) and the IC50 (Fatty acid synthase [7]) was 1.16 µM (active).

In the case of COc1ccc(S(=O)(=O)N[C@@H]2C=C[C@H](CC(=O)N3CCC(Cc4ccccc4)CC3)O[C@@H]2CO)cc1, the AC50 [15] is reported as 19 µM (active) and the AC50 [16] is reported as 32.6 µM (active).

For COc1ccccc1S(=O)(=O)N[C@H]1CC[C@@H](CC(=O)N2CCN(C)CC2)O[C@H]1CO, the AC50 [15] was 0.992 µM (active) and the AC50 [16] was 29.1 µM (active).

With CCOc1cc(/C=C2/S/C(=N/c3ccccc3)N(Cc3cccnc3)C2=O)ccc1OCC#N the EC50 [2] was 26.9 µM (active) and the EC50 [3] was 32.5 µM (active).

With CC(=C/c1ccccc1)/C=N/Nc1nc(N2CCCCC2)nc(N2CCCCC2)n1 the EC50 [2] was 24 µM (active) and the EC50 [3] was 21.6 µM (active).

With CN(C)CCN1C(=O)c2cccc3cc([N+](=O)[O-])cc(c23)C1=O [MITONAFIDE] the IC50 [17] was > 66 µM (inactive), the AC50 [12] was 1.11 µM (active) and the IC50 [18] was 43.4 µM (inactive). The AC50 [13] was 2.2 µM (active).

Reference: ChEMBL document CHEMBL1201862, “PubChem BioAssay data set” (2004)
